The results in this text go back to ChEMBL document CHEMBL1201862, “PubChem BioAssay data set” (2004).

Common to all, as to assay type: functional
Assay [1] addresses Protein kinase C theta type (Homo sapiens, UniProt Q04759). In words: Navigating the Kinome. Panel member name: PRKCQ.
The target in assay [2] is Dual specificity mitogen-activated protein kinase kinase 1 (Homo sapiens, UniProt Q02750). In words: Navigating the Kinome. Panel member name: MAP2K1.
In assay [3] the target is ALK tyrosine kinase receptor (Homo sapiens, UniProt Q9UM73).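 Note: ALK tested as one member of a kinase panel screen.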
In assay [4] the target is T1, Tyrosine-protein kinase receptor TYRO3 (Homo sapiens, UniProt Q06418).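 Note: TYRO3 value obtained as one member of a kinome-wide profiling panel.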
T1 sequence (Q06418 whole entry): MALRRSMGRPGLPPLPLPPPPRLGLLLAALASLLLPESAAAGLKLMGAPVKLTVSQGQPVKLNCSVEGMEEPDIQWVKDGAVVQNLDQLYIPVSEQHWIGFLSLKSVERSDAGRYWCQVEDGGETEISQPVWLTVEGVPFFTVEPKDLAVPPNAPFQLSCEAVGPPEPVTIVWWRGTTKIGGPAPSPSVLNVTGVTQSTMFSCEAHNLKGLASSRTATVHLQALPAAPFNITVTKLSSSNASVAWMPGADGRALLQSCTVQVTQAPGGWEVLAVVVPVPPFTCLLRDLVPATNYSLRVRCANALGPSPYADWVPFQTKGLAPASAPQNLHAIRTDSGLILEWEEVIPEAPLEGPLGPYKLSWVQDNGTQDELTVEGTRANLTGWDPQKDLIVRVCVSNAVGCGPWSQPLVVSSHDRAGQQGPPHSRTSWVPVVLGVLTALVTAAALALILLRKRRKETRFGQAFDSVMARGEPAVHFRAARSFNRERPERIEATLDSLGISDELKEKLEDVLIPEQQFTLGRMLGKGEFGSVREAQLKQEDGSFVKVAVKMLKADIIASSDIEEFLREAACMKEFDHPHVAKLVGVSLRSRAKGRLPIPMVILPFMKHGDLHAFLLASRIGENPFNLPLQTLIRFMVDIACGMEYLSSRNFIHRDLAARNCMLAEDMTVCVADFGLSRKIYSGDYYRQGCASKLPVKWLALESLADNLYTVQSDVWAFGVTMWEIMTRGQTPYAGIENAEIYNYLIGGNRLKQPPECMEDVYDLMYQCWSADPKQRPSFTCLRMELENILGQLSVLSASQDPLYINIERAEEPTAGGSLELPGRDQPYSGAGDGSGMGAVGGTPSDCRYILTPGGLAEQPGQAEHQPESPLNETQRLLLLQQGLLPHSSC

Assay [5] deals with Death-associated protein kinase 3 (Homo sapiens, UniProt O43293).
Death-associated protein kinase 3, sequence (O43293 whole entry): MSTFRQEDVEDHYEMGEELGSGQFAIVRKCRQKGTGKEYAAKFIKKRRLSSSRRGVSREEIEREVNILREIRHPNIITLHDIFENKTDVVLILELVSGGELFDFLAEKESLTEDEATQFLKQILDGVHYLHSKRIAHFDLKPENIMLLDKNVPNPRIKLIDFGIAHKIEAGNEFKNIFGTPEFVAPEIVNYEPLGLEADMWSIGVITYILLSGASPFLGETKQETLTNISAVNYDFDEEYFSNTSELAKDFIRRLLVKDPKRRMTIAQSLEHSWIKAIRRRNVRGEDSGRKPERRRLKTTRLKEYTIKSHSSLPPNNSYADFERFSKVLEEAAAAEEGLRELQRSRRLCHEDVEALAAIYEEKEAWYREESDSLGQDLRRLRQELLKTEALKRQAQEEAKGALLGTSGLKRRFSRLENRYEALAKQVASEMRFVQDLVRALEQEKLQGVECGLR
The target in the next assay is T2, Activin receptor type-1 (Homo sapiens, UniProt Q04771).
T2 sequence (Q04771 whole entry): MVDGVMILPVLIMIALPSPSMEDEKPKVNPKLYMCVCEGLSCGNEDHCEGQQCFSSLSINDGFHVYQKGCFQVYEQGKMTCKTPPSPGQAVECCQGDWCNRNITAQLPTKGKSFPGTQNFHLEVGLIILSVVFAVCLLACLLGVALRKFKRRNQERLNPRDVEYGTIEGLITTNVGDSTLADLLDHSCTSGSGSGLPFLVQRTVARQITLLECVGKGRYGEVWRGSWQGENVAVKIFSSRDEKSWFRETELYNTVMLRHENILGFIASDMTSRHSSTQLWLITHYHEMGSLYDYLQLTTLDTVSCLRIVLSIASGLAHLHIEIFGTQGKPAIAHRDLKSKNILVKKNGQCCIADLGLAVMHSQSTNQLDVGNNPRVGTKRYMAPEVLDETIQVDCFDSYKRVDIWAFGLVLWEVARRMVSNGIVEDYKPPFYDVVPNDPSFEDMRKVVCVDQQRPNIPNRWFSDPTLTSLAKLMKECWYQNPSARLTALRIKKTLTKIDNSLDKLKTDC
In words: Navigating the Kinome. Panel member name: ACVR1.

Assay [6] concerns the target Serine/threonine-protein kinase pim-1 (Homo sapiens, UniProt P11309).
Assay [7] concerns the target Fibroblast growth factor receptor 1 (Homo sapiens, UniProt P11362).
The target in assay [8] is T3, Mitogen-activated protein kinase kinase kinase kinase 2 (Homo sapiens, UniProt Q12851).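 Note: measured as one member of a kinome-wide kinase panel, with MAP4K2 as the panel entry.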
T3 sequence (Q12851 whole entry): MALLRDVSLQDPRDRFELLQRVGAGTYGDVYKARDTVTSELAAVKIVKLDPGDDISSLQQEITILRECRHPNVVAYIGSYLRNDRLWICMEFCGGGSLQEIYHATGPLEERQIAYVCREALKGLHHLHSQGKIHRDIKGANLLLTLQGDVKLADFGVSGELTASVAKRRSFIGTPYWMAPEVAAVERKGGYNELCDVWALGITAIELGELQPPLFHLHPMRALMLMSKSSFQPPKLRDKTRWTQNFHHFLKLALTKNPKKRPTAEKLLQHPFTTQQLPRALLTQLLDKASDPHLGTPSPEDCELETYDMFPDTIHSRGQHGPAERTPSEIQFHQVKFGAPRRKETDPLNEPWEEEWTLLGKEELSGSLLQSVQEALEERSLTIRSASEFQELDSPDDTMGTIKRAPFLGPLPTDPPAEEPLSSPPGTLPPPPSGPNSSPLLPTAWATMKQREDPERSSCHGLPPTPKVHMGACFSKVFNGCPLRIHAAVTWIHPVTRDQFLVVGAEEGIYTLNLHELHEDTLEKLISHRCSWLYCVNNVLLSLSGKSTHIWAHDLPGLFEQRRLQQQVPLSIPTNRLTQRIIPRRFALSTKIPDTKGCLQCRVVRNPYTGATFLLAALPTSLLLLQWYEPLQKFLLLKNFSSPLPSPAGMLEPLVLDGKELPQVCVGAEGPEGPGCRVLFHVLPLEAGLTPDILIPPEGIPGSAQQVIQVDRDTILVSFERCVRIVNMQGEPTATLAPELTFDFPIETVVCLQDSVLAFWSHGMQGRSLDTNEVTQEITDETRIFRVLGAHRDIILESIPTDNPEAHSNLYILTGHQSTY

Assay [9] has as its target Cyclin-dependent kinase 5 (Homo sapiens, UniProt Q00535).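 Note: CDK5 measured as one member of a kinase profiling panel.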
In assay [10] the target is Tyrosine-protein kinase Fyn (Homo sapiens, UniProt P06241).
Tyrosine-protein kinase Fyn, sequence (P06241 whole entry): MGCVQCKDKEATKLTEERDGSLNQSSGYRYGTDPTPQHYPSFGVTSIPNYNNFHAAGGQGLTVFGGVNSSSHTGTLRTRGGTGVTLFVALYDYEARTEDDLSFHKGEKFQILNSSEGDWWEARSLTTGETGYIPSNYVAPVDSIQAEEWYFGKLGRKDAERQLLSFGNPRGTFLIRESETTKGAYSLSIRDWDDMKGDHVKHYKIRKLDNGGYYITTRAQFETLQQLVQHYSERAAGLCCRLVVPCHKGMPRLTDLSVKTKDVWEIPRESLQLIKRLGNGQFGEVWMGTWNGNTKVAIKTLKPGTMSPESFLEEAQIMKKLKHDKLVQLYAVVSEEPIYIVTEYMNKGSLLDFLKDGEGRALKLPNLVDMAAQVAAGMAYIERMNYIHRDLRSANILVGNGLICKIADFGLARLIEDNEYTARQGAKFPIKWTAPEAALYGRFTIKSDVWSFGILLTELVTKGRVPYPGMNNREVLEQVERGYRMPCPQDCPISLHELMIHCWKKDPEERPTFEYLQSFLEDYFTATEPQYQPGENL
For assay [11], the target named is Cyclin-dependent kinase 8 (Homo sapiens, UniProt P49336). In words: Navigating the Kinome. Panel member name: CDK8.
Cyclin-dependent kinase 8, sequence (P49336 whole entry): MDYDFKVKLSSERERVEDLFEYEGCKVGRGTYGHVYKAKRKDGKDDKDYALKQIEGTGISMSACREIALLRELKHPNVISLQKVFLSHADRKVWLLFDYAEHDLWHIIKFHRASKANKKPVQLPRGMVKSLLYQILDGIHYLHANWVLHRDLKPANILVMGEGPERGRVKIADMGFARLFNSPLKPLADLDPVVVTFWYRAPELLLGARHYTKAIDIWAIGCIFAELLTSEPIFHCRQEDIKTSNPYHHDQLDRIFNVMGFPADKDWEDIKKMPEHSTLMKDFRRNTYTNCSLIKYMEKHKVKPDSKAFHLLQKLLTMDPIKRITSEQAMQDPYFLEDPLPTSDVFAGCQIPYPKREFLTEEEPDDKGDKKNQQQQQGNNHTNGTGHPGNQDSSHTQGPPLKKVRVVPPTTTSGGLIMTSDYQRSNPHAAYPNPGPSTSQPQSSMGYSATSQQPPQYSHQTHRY
Assay [12] addresses Vascular endothelial growth factor receptor 1 (Homo sapiens, UniProt P17948).
In assay [13] the target is Cyclin-dependent kinase 9 (Homo sapiens, UniProt P50750).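 Note: value from the CDK9 entry of a kinome-spanning kinase panel.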
For assay [14], the target named is BDNF/NT-3 growth factors receptor (Homo sapiens, UniProt Q16620).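 Note: NTRK2 measured as one member of a broad kinome-wide kinase profiling panel.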
BDNF/NT-3 growth factors receptor, sequence (Q16620 whole entry): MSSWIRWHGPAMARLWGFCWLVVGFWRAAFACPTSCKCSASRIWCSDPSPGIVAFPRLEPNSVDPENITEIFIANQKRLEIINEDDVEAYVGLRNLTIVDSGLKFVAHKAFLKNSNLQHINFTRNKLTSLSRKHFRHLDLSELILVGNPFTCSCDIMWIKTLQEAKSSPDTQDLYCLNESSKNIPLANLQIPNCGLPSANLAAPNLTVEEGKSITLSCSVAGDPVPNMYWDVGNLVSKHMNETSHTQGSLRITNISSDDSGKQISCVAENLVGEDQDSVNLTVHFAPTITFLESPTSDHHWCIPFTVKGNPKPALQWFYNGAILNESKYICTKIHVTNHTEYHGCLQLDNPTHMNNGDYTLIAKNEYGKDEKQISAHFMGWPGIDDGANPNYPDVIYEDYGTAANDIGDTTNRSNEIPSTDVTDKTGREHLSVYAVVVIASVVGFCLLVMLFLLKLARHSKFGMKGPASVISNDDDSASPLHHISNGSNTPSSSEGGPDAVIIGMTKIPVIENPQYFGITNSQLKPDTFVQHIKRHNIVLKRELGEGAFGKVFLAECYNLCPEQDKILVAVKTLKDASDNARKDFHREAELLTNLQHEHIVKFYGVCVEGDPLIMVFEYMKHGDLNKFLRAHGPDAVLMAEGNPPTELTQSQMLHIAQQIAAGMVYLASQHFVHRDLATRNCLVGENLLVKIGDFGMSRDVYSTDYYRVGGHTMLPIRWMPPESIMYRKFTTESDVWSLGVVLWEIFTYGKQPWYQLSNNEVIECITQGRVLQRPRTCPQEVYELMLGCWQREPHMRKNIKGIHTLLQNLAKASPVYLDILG
Assay [15] deals with Macrophage colony-stimulating factor 1 receptor (Homo sapiens, UniProt P07333).
Macrophage colony-stimulating factor 1 receptor, sequence (P07333 whole entry): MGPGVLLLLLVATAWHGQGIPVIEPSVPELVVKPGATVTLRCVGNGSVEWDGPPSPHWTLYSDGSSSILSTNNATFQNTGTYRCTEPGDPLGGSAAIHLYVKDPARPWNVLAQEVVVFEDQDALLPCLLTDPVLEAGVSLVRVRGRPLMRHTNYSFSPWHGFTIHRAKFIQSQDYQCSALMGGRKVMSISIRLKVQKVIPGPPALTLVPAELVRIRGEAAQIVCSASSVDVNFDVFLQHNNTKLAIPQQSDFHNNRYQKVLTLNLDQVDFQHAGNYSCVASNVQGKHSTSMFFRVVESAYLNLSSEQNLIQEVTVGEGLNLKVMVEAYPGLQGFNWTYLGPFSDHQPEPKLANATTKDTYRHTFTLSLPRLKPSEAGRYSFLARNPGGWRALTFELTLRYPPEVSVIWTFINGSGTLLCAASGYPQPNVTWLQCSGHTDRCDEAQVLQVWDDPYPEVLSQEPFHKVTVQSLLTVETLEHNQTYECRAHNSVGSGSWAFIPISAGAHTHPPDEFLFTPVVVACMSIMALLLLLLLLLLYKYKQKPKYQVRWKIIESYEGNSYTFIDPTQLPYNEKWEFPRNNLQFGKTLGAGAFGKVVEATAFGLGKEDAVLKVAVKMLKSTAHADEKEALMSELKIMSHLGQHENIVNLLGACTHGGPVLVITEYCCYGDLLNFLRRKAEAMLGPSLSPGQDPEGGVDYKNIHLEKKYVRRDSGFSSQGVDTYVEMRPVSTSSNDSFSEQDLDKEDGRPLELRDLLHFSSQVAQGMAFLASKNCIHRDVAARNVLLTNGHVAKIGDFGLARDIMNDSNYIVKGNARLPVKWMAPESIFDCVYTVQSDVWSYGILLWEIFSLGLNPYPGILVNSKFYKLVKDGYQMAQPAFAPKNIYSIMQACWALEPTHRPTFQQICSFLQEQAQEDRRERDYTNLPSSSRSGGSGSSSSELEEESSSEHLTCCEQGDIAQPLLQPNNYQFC

Calls of active or inactive are those of the source. A value given as a limit tells only on which side of the number the result lay.

Fibroblast growth factor receptor 1, sequence (P11362 whole entry): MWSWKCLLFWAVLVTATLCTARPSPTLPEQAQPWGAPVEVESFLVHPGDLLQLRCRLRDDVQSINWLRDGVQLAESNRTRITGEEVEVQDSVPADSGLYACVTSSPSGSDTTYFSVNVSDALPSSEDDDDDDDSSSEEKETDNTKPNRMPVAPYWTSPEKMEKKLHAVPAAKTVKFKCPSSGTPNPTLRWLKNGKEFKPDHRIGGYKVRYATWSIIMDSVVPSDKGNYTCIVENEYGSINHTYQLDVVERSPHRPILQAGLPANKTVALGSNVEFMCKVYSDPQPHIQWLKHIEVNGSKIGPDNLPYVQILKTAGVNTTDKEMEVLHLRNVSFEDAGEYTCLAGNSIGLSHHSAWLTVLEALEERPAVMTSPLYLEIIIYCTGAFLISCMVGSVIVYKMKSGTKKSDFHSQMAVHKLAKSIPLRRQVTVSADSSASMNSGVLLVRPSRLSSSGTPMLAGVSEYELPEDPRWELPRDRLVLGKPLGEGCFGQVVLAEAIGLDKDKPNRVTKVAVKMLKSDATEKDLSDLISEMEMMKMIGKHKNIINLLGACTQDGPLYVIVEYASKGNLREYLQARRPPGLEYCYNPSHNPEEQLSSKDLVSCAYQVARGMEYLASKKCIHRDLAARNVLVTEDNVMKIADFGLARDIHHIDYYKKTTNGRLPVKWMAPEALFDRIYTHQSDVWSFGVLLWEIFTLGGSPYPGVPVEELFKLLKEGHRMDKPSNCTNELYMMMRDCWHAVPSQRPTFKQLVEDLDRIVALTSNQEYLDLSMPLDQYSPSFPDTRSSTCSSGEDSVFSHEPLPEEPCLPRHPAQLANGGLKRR
Protein kinase C theta type, sequence (Q04759 whole entry): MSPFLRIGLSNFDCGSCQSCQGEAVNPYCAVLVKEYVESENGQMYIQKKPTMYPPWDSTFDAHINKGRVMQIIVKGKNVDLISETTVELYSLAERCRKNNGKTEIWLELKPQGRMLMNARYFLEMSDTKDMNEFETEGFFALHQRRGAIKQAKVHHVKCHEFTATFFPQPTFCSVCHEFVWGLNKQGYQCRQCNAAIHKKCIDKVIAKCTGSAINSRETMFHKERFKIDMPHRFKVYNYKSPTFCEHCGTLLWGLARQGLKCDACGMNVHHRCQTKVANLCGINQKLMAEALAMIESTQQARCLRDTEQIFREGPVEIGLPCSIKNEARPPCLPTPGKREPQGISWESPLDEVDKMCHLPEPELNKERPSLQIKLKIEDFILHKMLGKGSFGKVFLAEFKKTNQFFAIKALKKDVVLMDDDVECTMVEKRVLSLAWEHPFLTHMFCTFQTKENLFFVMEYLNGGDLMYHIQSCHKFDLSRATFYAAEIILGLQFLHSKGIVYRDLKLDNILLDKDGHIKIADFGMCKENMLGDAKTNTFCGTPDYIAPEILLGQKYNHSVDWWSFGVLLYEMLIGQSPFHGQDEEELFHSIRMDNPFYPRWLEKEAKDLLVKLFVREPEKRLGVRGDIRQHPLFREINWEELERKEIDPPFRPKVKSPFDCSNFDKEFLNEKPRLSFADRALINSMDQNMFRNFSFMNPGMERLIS

With `Oc1ccc(-c2nc(-c3ccncc3)c(-c3ccc(F)cc3)[nH]2)cc1` [SB-202190], the Ki (commonly the dissociation constant of the complex between target and ligand, obtained from inhibition or displacement) is > 2.51 µM (inactive) in assay [1]; > 3.16 µM (inactive) in [2]; > 6.31 µM (inactive) in assay [3]; > 3.16 µM (inactive) in assay [4]; > 5.01 µM (inactive) in assay [5]; > 3.16 µM (inactive) at Activin receptor type-1. The Ki in assay [6] was > 6.31 µM (inactive); in assay [7], > 3.98 µM (inactive); in [8], > 2.51 µM (inactive); in assay [9], > 3.16 µM (inactive); in assay [10], > 6.31 µM (inactive); in [11] it was > 3.98 µM (inactive). In addition, the Ki in [12] was > 3.98 µM (inactive); in assay [13], > 1.58 µM (inactive); in assay [14] it was 0.794 µM (active); in [15] it was > 2 µM (inactive).
With `CCCCC(=O)Nc1cc(-c2c[nH]c3ncccc23)cc(Cl)n1`, the Ki in assay [1] was > 2.51 µM (inactive); in [2], > 3.16 µM (inactive); in assay [3] it was > 6.31 µM (inactive); in assay [4] it was > 3.16 µM (inactive); in [5], > 3.16 µM (inactive); on Activin receptor type-1, > 3.98 µM (inactive). For the same compound, the Ki in assay [6] was > 6.31 µM (inactive); in assay [7], > 3.98 µM (inactive); in [8] it was > 2.51 µM (inactive); in assay [9] it was 1 µM (active); in assay [10], > 6.31 µM (inactive); in assay [11] it was 0.0158 µM (active). In addition, the Ki in [12] was > 3.98 µM (inactive); in assay [13] it was > 1.58 µM (inactive); in assay [14], > 3.98 µM (inactive); in assay [15], > 2.51 µM (inactive).
In the case of `COc1cccc(C(C)NC(=O)c2sc(-c3ccncc3)nc2C)c1` (stereo not drawn), the Ki is > 2.51 µM (inactive) in assay [1]; > 3.16 µM (inactive) in assay [2]; > 6.31 µM (inactive) in assay [3]; > 3.16 µM (inactive) in [4]; > 5.01 µM (inactive) in assay [5]; > 3.98 µM (inactive) on Activin receptor type-1. The Ki in assay [6] is > 6.31 µM (inactive); in assay [7], > 3.98 µM (inactive); in assay [8] it was > 2.51 µM (inactive); in assay [9], > 3.16 µM (inactive); in assay [10], > 6.31 µM (inactive); in [11], > 3.98 µM (inactive). Moreover, the Ki in assay [12] was > 3.98 µM (inactive); in assay [13], > 1.58 µM (inactive); in [14] it was > 3.98 µM (inactive); in [15] it was > 2.51 µM (inactive).
